Source: patent US9192605B2, “Compositions and methods for treating parkinson's disease” (priority 2009, dated 2015)
Like-named read-outs stand apart in the source and are kept apart here.

Tests used:
[1] = for Freezing during “on” score / Motor Fluctuations (presence) score / Motor Fluctuations (severity) score / Rise from Chair score / ADL Speech score / Alternating Movements score / Changing position, i.e. turning in bed score / Dressing score / Dyskinesias (presence) score / Dyskinesias (severity) score / Feeding score / Gait score / Handwriting score / Hygiene score / Postural Tremor score / Rigidity score / Speech score / Swallowing score / Walking score / Rest Tremor score: 40 micrograms haloperidol/day oral, one patient; for Freezing during “on” score / Motor Fluctuations (presence) score / Motor Fluctuations (severity) score / Rise from Chair score: Baseline Time 1 score 0; for ADL Speech score / Alternating Movements score / Changing position, i.e. turning in bed score / Dressing score / Dyskinesias (presence) score / Dyskinesias (severity) score / Feeding score / Gait score / Handwriting score / Hygiene score / Postural Tremor score / Rigidity score / Speech score / Swallowing score / Walking score: Baseline Time 1 score 1; for Rest Tremor score: Baseline Time 1 score 2
rats = test: locomotion, exploration and grooming of rats given low-dose haloperidol; assay type: in vivo, rat
[2] = clinical use as antipsychotic; cited from earlier work
dopamine D2 receptors = dopamine D2 receptors (Homo sapiens, UniProt P14416); conditions: PET with [11C]raclopride, over 24 hours, schizophrenia patients and volunteers; cited from earlier work
[3] = target: human cloned dopamine D2 receptors (Homo sapiens, UniProt P14416); conditions: cited from earlier work

O=C(CCCN1CCC(O)(c2ccc(Cl)cc2)CC1)c1ccc(F)cc1 [haloperidol]
Freezing during “on” score ([1]; Score Time 2): 0 | Motor Fluctuations (presence) score ([1]; Score Time 2): 0 | Motor Fluctuations (severity) score ([1]; Score Time 2): 0 | Rise from Chair score ([1]; Score Time 2): 0 | ADL Speech score ([1]; Score Time 2): 0 | Alternating Movements score ([1]; Score Time 2): 0 | Changing position, i.e. turning in bed score ([1]; Score Time 2): 1 | Dressing score ([1]; Score Time 2): 1 | Dyskinesias (presence) score ([1]; Score Time 2): 0 | Dyskinesias (severity) score ([1]; Score Time 2): 0 | Feeding score ([1]; Score Time 2): 1 | Gait score ([1]; Score Time 2): 0 | Handwriting score ([1]; Score Time 2): 1 | Hygiene score ([1]; Score Time 2): 1 | Postural Tremor score ([1]; Score Time 2): 1 | Rigidity score ([1]; Score Time 2): 2 | Speech score ([1]; Score Time 2): 0 | Swallowing score ([1]; Score Time 2): 0 | Walking score ([1]; Score Time 2): 0 | Rest Tremor score ([1]; Score Time 2): 2 | Freezing during “on” score ([1]; Score Time 3): 0 | Motor Fluctuations (presence) score ([1]; Score Time 3): 0 | Motor Fluctuations (severity) score ([1]; Score Time 3): 0 | Rise from Chair score ([1]; Score Time 3): 0 | ADL Speech score ([1]; Score Time 3): 0 | Alternating Movements score ([1]; Score Time 3): 1 | Changing position, i.e. turning in bed score ([1]; Score Time 3): 1 | Dressing score ([1]; Score Time 3): 1 | Dyskinesias (presence) score ([1]; Score Time 3): 0 | Dyskinesias (severity) score ([1]; Score Time 3): 0 | Feeding score ([1]; Score Time 3): 1 | Gait score ([1]; Score Time 3): 1 | Handwriting score ([1]; Score Time 3): 1 | Hygiene score ([1]; Score Time 3): 1 | Postural Tremor score ([1]; Score Time 3): 1 | Rigidity score ([1]; Score Time 3): 2 | Speech score ([1]; Score Time 3): 0 | Swallowing score ([1]; Score Time 3): 0 | Walking score ([1]; Score Time 3): 0 | Rest Tremor score ([1]; Score Time 3): 2 | clinical observation: involuntary movements ([1]; Time 1 or Time 2, apart from resting tremor of right hand present at all times): No involuntary movements noted | overall conclusion ([1]; baseline to Time 1 and 2, most noticeable walking and overall presentation): A slight improvement from baseline to Time 1 and 2 on certain markers | clinical observation: rigidity on palpation ([1]; elbow joint, no rigidity on left, 40 micrograms/day oral): Slight increase in rigidity on palpation of elbow joint on right side | clinical observation: appearance, facial features ([1]; time 1 and 2 vs baseline, 40 micrograms/day oral): appeared brighter, less flat facial features | behaviour of the animals (rats; 0.0025 mg/kg/day, 5 days): heightened locomotion, active exploration and good grooming | behaviour of the animals (rats; 0.005 mg/kg, on days 3-5 or upon stopping the haloperidol): spontaneously increased locomotion and well-being | behaviour of the animals (rats; haloperidol 0.03 mg/kg down to 0.0025 mg/kg): heightened locomotion and active exploration

Cc1cc2c(s1)Nc1ccccc1N=C2N1CCN(C)CC1 [olanzapine]
extrapyramidal signs (EPS) in patients [2]: dose-dependent incidence of extrapyramidal signs

OCCOCCN1CCN(C2=Nc3ccccc3Sc3ccccc32)CC1 [quetiapine]
extrapyramidal signs (EPS) in patients [2]: essentially no EPS occurs | time course of human striatum D2 occupancy (dopamine D2 receptors): rapidly falls off within 24 hours

[^3H]quetiapine
rate of release from D2 receptors relative to [3H]haloperidol or [3H]chlorpromazine [3]: at least one hundred times faster
